Experimental data published in PMC4834639, “Steroid binding to Autotaxin links bile salts and lysophosphatidic acid signalling” (Nature Communications, 2016).
Entries after “also recorded” stand apart in the source; their conditions may differ. Read-outs that look alike come from different tables or passages of the source.

Legend:
[1] = biological target: T1, hATX (Homo sapiens, UniProt Q13822)
Protocol: (§1) All biochemical studies were performed with hATX. ATX lysoPLD activity was measured by choline release from LPC[47]. […] The relative amount of released choline was measured by HVA fluorescence in a 96-well plate (Corning). Fluorescent intensity was determined at λex/λem=320/450 nm every 30 s for 90 min with a Fluorostar plate reader (BMG Labtech). Data analysis was performed using GraphPad Prism.
(§2) The experiments for determining IC50 for different bile salt inhibitors were performed by adding the named bile salt and performing serial threefold dilutions; for each bile salt concentration, the velocity of the reaction was monitored as a function of time in the lysoPLD assay as described above.
(§3) For initial comparison between competitive, uncompetitive and non-competitive inhibition by TUDCA, using the LPC and the FS3 assays, we measured the relative velocity for increasing LPC or FS3 substrate concentrations, for no-inhibitor and for three different inhibitor concentrations. The relative velocity for each data point was measured by linear regression as described above, and a Michaelis–Menten curve was created for each inhibitor concentration. We then used the following equations to describe each mode of inhibition:
(§4) where in addition to previous definitions that can be derived from equations (4–6), we define Part as the partiality of the inhibition and α as an estimated constant that determines mechanism: if α=1, the formula becomes identical to equation (4) and the inhibition mode is noncompetitive; if a is very large, then the model approaches a competitive model equation (3); if a is very small but greater than zero, the model approaches an uncompetitive model.
(§5) This procedure allowed a more robust fit to determine all parameters from all available experiments.
(§6) All modelling was performed using the regression analysis tools within the Graphpad/Prism software. The values of all derived parameters indicate mean values as obtained by nonlinear regression analysis using the formulas listed above; triplicate data were used as separate observations during the fit; ±values indicate the standard error of the mean.

[2] = biological target: T1, hATX; assay: biochemical
Protocol: as §1, §2, §3, §4, §5, §6

[3] = biological target: T1, hATX; assay: Mass spectrometry analysis of sterols associated with recombinant ATX preparation; set-up: made in house; host or cells: HEK 293 Flp-In cells; conditions: for amount found in ATX preparation: representative ATX preparation containing 2.4 pmol ATX; for Ratio to ATX: representative ATX preparation, ATX = 1.0
Protocol: Recombinant hATX preparations or buffer controls were extracted using acidified organic solvents as reported previously for lipid extractions from cells and tissues[45] with inclusion of deuterium-labelled cholesterol of oxysterol internal standards as detailed below. Samples were evaporated to dryness and reconstituted in methanol for mass spectrometry analysis.
Cholesterol and hydroxysterols were analysed using an AB Sciex 4000-Qtrap hybrid linear ion trap triple quadrupole mass spectrometer in multiple reaction monitoring mode connected to a Shimadzu HPLC. Cholesterol was analysed in positive multiple reaction monitoring mode using a Machery Nagel Nucleodur C8 gravity column, 5 μm, 125 × 2 mm^2 with a flow rate of 0.5 ml min^−1. Solvent A consists of 75/25 of methanol/water with 0.5% formic acid and 0.1% 5 mM ammonium formate and solvent B consists of 99/1 of methanol/water with 0.5% formic acid and 0.1% 5 mM ammonium formate. The cholesterol measurements were conducted exactly as reported previously with quantification accomplished by reference to a deuterated internal standard. Oxysterols were measured after dimethylglycine (DMG) derivatization using an Agilent Zorbax Eclipse XDB-C18 column, 5 μm, 4.6 × 150 mm^2 with a flow rate of 0.5 ml min^−1. Solvent A was 85% methanol with 5 mM ammonium acetate and solvent B consisted of 80:20:2 of chloroform/water/50 mM ammonium acetate. In brief, we obtained authentic standards for 25-, 24-, 27, 7-α and 4-β OH cholesterol and deuterated 25-OH cholesterol and prepared DMG derivatives exactly as previously described. We obtained product ion spectra from the doubly and singly charged DMG derivatives of these compounds that were essentially identical to those reported previously with some differences in product ion abundances that are likely attributable to differences between our mass spectrometer system and that used by Jiang et al.[46]. […] Quantification of oxysterols was accomplished by reference to the deuterated 25-OH cholesterol internal standard as explained below.
Cholesterol was detected in all ATX preparations analysed.
As reported by Jiang et al.[46], bis-DMG derivatives of hydroxylated cholesterol generate doubly charged molecular ions (m/z=287.3), which fragment to produce protonated DMG (m/z=104.1) and production of singly charged mono-DMG derivative ions (m/z=367.2). […] Accordingly, we established a selected ion-monitoring mode HPLC LC MS/MS assay that monitored these ion pairs. […] Quantification was accomplished by comparing the integrated peak area for the […]/104.1 ion pair to that of the corresponding ion pair from the deuterated 25-OH cholesterol internal standard. That ATX preparation analysed contained 1.48 pmol of 7-OH cholesterol.

[4] = system: ATX-mediated LPAR1 endocytosis in HeLa cells; assay: LPA1 receptor internalization assay in GFP-LPA1-transfected HeLa cells; conditions: 0.1 μM LPC, 5 nM ATX, 500 μM TUDCA, 15 min, P<0.001
Protocol: HeLa cells (obtained from American Type Culture Collection) were grown in DMEM supplemented with 10% fetal bovine serum at 37 °C under 5% CO2. For LPA1 internalization studies, HeLa cells were transient transfected with GFP-LPA1 plasmid using X-tremeGene 9 (Roche) reagent according to the manufacturer's instructions. At 10 h after transfection, the cells were rinsed with SF-DMEM and incubated in the same medium for 16–24 h before further treatments. […] Slides were examined on a Leica TCS-SP5 confocal microscope (× 62 objective) and analysed using ImageJ software.

[5] = LPC(18:1) substrate, result in words

Question: With C[C@]12C=CC(=O)C=C1CC[C@@H]1[C@@H]2[C@@H](O)C[C@@]2(C)[C@H]1CC[C@]2(O)C(=O)CO [prednisolone] as the compound, how does the “effect on ATX-mediated LPC hydrolysis” value [1, 5] read?
Answer: The value was “no effect”.

Question: Which “effect on ATX-mediated LPC hydrolysis” value [1, 5] does the source give for C[C@@H]1C[C@H]2[C@@H]3CCC4=CC(=O)C=C[C@]4(C)[C@@]3(F)[C@@H](O)C[C@]2(C)[C@@]1(O)C(=O)CO [dexamethasone] here?
Answer: Its value is “no effect”.

Question: What does the source list for C[C@H](CCC(=O)NCCS(=O)(=O)O)[C@H]1CC[C@H]2[C@@H]3[C@H](O)C[C@@H]4C[C@H](O)CC[C@]4(C)[C@H]3C[C@H](O)[C@]12C [TCA, Taurocholic acid]?
Answer: effect on ATX-mediated LPC hydrolysis [1]: abrogate the inhibitory activity; IC50 [2]: > 1000 µM

Question: With CC(C)CCC[C@@H](C)[C@H]1CC[C@H]2[C@@H]3[C@H](O)C=C4C[C@@H](O)CC[C@]4(C)[C@H]3CC[C@]12C [7HCS, 7α-hydroxycholesterol] as the compound, how does the “effect on ATX-mediated LPC hydrolysis” value [1, 5] read?
Answer: Its value is “no effect”.

Question: What about the “amount found in ATX preparation” value [3] of the same compound?
Answer: The value was 1.48 pmol.

Question: What about the “Ratio to ATX” value [3] of the same compound?
Answer: Its value is 0.62.

Question: How did the “effect on ATX-mediated LPC hydrolysis” value [1, 5] turn out when C[C@H](CCCC(C)(C)O)[C@H]1CC[C@H]2[C@@H]3[C@H](O)C=C4C[C@@H](O)CC[C@]4(C)[C@H]3CC[C@]12C [DHCS, 7α,25-Dihydroxycholesterol] was run?
Answer: Its value is “no effect”.

Question: What about the IC50 [2] of the same compound?
Answer: The IC50 was > 1000 µM.

Question: C[C@H](CCC(=O)NCCS(=O)(=O)O)[C@H]1CC[C@H]2[C@@H]3[C@@H](O)C[C@@H]4C[C@H](O)CC[C@]4(C)[C@H]3CC[C@]12C [TUDCA, Tauroursodeoxycholic acid] was tested. Which “ATX-mediated LPAR1 endocytosis (number of GFP-LPA1 endosomes)” value [4] did it give?
Answer: The value was “reduces ATX-mediated LPAR1 endocytosis; also recorded: reduces the number of endosomes”.

Question: What does the source list for C[C@H](CCC(=O)NCC(=O)O)[C@H]1CC[C@H]2[C@@H]3[C@H](O)C[C@@H]4C[C@H](O)CC[C@]4(C)[C@H]3CC[C@]12C [GCDCA, Glycochenodeoxycholic acid]?
Answer: effect on ATX-mediated LPC hydrolysis [1, 5]: did not significantly change potency; IC50 [2]: 8.1 ± 0.7 µM

Question: C[C@]12CC[C@H]3[C@@H](CCC4=CC(=O)CC[C@@]43C)[C@@H]1CC[C@@H]2O [testosterone] was tested. Which “effect on ATX-mediated LPC hydrolysis” value [1, 5] did it give?
Answer: Its value is “no effect”.

Question: C[C@H](CCC(=O)NCCS(=O)(=O)O)[C@H]1CC[C@H]2[C@@H]3CC[C@@H]4C[C@H](O)CC[C@]4(C)[C@H]3C[C@H](O)[C@]12C [TDCA, Taurodeoxycholic acid] was tested. Which “effect on ATX-mediated LPC hydrolysis” value [1, 5] did it give?
Answer: The value was “abrogate the inhibitory activity”.

Question: What about the IC50 [2] of the same compound?
Answer: The IC50 was > 1000 µM.

Question: With C[C@H](CCC(=O)O)[C@H]1CC[C@H]2[C@@H]3[C@@H](O)C[C@@H]4C[C@H](O)CC[C@]4(C)[C@H]3CC[C@]12C [UDCA, Ursodeoxycholic acid] as the compound, how does the IC50 [2] read?
Answer: Its IC50 is 8.8 ± 0.5 µM.

Question: For CC(C)CCC[C@@H](C)[C@H]1CC[C@H]2[C@@H]3CC=C4C[C@@H](O)CC[C@]4(C)[C@H]3CC[C@]12C [Cholesterol], which “amount found in ATX preparation” value [3] is on record?
Answer: The value was 0.35 pmol.

Question: What about the “Ratio to ATX” value [3] of the same compound?
Answer: Its value is 0.15.
